In brackets after ≈: the same amount, converted by molar mass. Where two headings read alike, the source gives them in different places.
Assays:
[1] = tested on: C. difficile strains R20291 and BAA-1875; assay: MIC testing against C. difficile strains R20291 and BAA-1875; type: cell-based, Clostridium difficile; details: for fold less active than 1971 (MIC): relative to parent 1971; for MIC: Clostridioides difficile, BAA1875, C. difficile R20291 and BAA-1875 (FIG. 8), 24 h, 37° C., anaerobic
Experimental: (§1) The synthesized compounds were initially tested against four virulent C. difficile strains: CD1803 (toxinotype III, 95 NAP1), CD1875 (toxinotype V, NAP7), R20291 (ribotype 027—from A. Sonenshein, Tufts University, USA), and BAA-1875 (ribotype 078, from American Type Culture Collection-ATCC). The activities (i.e. Minimum Inhibitory Concentrations-MICs) of test compounds were determined in 24 or 96 well microtitre plates using bacterial inocula of 10^6 cfu/mL and were defined as the lowest concentration of test compound that inhibited visible growth after 24 h of incubation at 37° C. in an A35 anaerobic chamber (Don-Whitley).

Caco-2 monolayer = assay: Caco-2 cell permeability assay; type: in vitro ADME
Experimental: The permeability co-efficient (Papp A-B) of the compounds were calculated and the ability of compounds to move from the apical to the basolateral side of Caco-2 monolayer is shown in FIG. 16.

[2] = tested on: C. difficile strain ATCC 43596; assay: Hamster model of CDI (efficacy); type: in vivo, Golden Syrian hamsters
Experimental: Golden Syrian hamsters (˜100 g) from Charles River Laboratories were separately housed in sterile cages and maintained on sterile food and water. On day −1, animals were subcutaneously injected with clindamycin phosphate solution (50 mg/kg, from Hospira). After 20 h (day 0), hamsters were infected by oral gavage with 10^6 cfu of the C. difficile strain ATCC 43596 grown in Sporulation Medium and washed once with pre-reduced PBS; 15. […] After 5 days of treatment, surviving hamsters were monitored for up to 30 days for signs of disease as described by Anton et al. All moribund animals were euthanized, as well as those that survived the post-treatment monitoring period (30 days); ceca were recovered from all animals. All animal experiments were approved by The Institutional Animal Care and Use Committee of The University of Texas at Arlington.

[3] = literature; cited from earlier work
[4] = tested on: C. difficile strain ATCC 43596; assay: MIC against infecting strain ATCC 43596; type: cell-based, Clostridium difficile
[5] = Pharmacokinetic study in hamsters, plasma; type: in vivo; details: male, Syrian, po, hamster, 100 mg/kg in PEG-400:water (85:15); for AUC: read-out: total exposure (AUC) in plasma
Experimental: (§2) Pharmacokinetic studies were assessed in male Syrian hamsters (˜100 g), from Charles-River, with each carrying a pre-implanted jugular vein cannula. Hamsters (n=5 per group) were fasted overnight and for the duration of the experiment (7 h). After collecting pre-dose blood samples (200 μL), animals were dosed with 100 mg/kg of compounds formulated in PEG-400:water (85:15). At various time points blood samples were collected into heparinized coated tubes that were centrifuged at 3000 rpm for 10 min to yield plasma, which was stored at −20° C. After dosing animals (n=3 per time point) as above, animals were humanely sacrificed at time points and their cecal contents collected and stored at −20° C. For plasma samples, 25 μL of plasma was placed in 384-well analytical plate and quenched by the addition of 50 μL of acetonitrile containing 4 mg/L warfarin as an internal standard. The plate was sealed, shaken at 600 rpm for 10 min, and then was centrifuged at 4000 rpm for 20 min. 15 μL of the supernatant was transferred to a new analytical 96-well plate and mixed with 100 μL of MilliQ water. The samples were analyzed by injecting 5 μL onto a Waters UPLC/SQD LC-MS/MS system. The cecal samples were processed by adding 100 μL of acetonitrile containing 4 mg/L of warfarin (internal standard) to the microfuge tubes containing cecal matter (˜50 mg). The suspension was vortexed for 10 sec, sonicated for 1 min and then centrifuged at 10,000 rpm for 10 min. Aliquots (50 μL) of the collected supernatants were then transferred to a 384-well plate and analyzed by high resolution mass spectroscopy using Waters XEVO QTOF LCMS.

[6] = Cecal content concentrations in hamsters; type: in vivo; details: for mean peak cecal concentration: hamster cecal contents at 1, 3 and 5 h after oral dosing 100 mg/kg, LLOQ 10 ng/mL
Experimental: as §2, with “After” for “Pharmacokinetic studies were assessed in male Syrian hamsters (˜100 g), from Charles-River, with each carrying a pre-implanted jugular vein cannula. Hamsters (n=5 per group) were fasted overnight and for the duration of the experiment (7 h). After collecting pre-dose blood samples (200 μL), animals were dosed with 100 mg/kg of compounds formulated in PEG-400:water (85:15). At various time points blood samples were collected into heparinized coated tubes that were centrifuged at 3000 rpm for 10 min to yield plasma, which was stored at −20° C. After”
To evaluate this in vivo, we determined the concentrations of the three compounds in the cecal contents recovered from hamsters at 1, 3 and 5 h time points following oral dosing (FIG. 19).

[7] = In vitro microsomal stability; type: in vitro ADME; details: microsomes; data not shown; read-out: microsomal stability t½ (converted)
Source text: Thus, the very low concentration of the hybrids in the plasma might likely be due to a combination of poor intestinal absorption and hepatic clearance.

[8] = tested on: C. difficile strain BAA-1803; assay: MIC against C. difficile strain BAA-1803; type: cell-based, Clostridium difficile; details: 3-position substituents
Experimental: as §1

C. difficile = assay: MIC of nitro and des-nitro analogs (mode of action); type: cell-based, Clostridium difficile; details: Clostridioides difficile; des-nitro analogs (FIG. 11)
[9] = tested on: Clostridium difficile infection; details: severe CDI; cited from earlier work
[10] = Clostridioides difficile, ATCC43596, infecting strain ATCC 43596, read-out: MIC

CC(=O)C1=C(O)CN(CCn2c([N+](=O)[O-])cnc2C)C1=O [Compound 2153, 3-acetyl-4-hydroxy-1-(2-(2-methyl-5-nitro-1H-imidazol-1-yl)ethyl)-1H-pyrrol-2(5H)-one]
fold less active than 1971 (MIC) [1]: > 64 fold

CN[C@H](CC(C)C)C(=O)N[C@H]1C(=O)N[C@@H](CC(N)=O)C(=O)N[C@H]2C(=O)N[C@H]3C(=O)N[C@H](C(=O)N[C@H](C(=O)O)c4cc(O)cc(O)c4-c4cc3ccc4O)[C@H](O)c3ccc(c(Cl)c3)Oc3cc2cc(c3O[C@@H]2O[C@H](CO)[C@@H](O)[C@H](O)[C@H]2O[C@H]2C[C@](C)(N)[C@H](O)[C@H](C)O2)Oc2ccc(cc2Cl)[C@H]1O [vancomycin]
Caco-2 permeation in words (Caco-2 monolayer; apical to basolateral): poor permeation properties
complete survival, days post-treatment ([2]; vancomycin 20 mg/kg, hybrids 50 mg/kg): more than 20 days
absorbed from the gastrointestinal tract [3]: < 10%

CC(=O)C1=C(O)C(Cc2cccc3ccccc23)N(CCn2c([N+](=O)[O-])cnc2C)C1=O (centres unmarked) [Compound 2344, 3-acetyl-4-hydroxy-1-(2-(2-methyl-5-nitro-1H-imidazol-1-yl)ethyl)-5-(naphthalen-1-ylmethyl)-1H-pyrrol-2(5H)-one]
MIC [4, 10]: 0.25 µg/mL (≈ 0.575 µM)
Cmax [5]: 211 ng/mL
Tmax [5]: 15 min
AUC [5]: 386 ng·h/mL
mean peak cecal concentration [6]: 2,678 ng/mL
half-life [7]: 18 min

CC(=O)C1=C(O)C(CC(C)C)N(CCn2c([N+](=O)[O-])cnc2C)C1=O (centres unmarked) [Compound 1971, 3-acetyl-4-hydroxy-5-isobutyl-1-(2-(2-methyl-5-nitro-1H-imidazol-1-yl)ethyl)-1H-pyrrol-2(5H)-one]
MIC [1]: 1 to 2 µg/mL (≈ 2.85 to 5.71 µM)
fold less active than metronidazole (MIC) ([1]; relative to metronidazole): 4 to 8 fold
activity / MIC in words (FIG. 10) [8]: No difference in MIC
MIC [4, 10]: 0.5 µg/mL (≈ 1.43 µM)

CCC(C)C1C(O)=C(C(C)=O)C(=O)N1CCn1c([N+](=O)[O-])cnc1C (centres unmarked) [Compound 2155, 3-acetyl-5-(sec-butyl)-4-hydroxy-1-(2-(2-methyl-5-nitro-1H-imidazol-1-yl)ethyl)-1H-pyrrol-2(5H)-one]
Caco-2 permeation in words (Caco-2 monolayer; Caco-2): slightly more permeable than vancomycin
permeability co-efficient (Papp A-B) (Caco-2 monolayer; Caco-2): 284.5±34.7 to 307±35.6

Cc1ncc([N+](=O)[O-])n1CCN1C(=O)C=C(O)C1CC(C)C.O=C(O)C(F)(F)F (centres unmarked) [Compound 2314, 4-hydroxy-5-isobutyl-1-(2-(2-methyl-5-nitro-1H-imidazol-1-yl)ethyl)-1H-pyrrol-2(5H)-one, TFA]
activity / MIC in words (FIG. 10) [8]: loss of activity

CC(=O)C1=C(O)C(Cc2cccc3ccccc23)N(CCn2ccnc2C)C1=O (centres unmarked) [Compound 2699, 3-acetyl-4-hydroxy-1-(2-(2-methyl-1H-imidazol-1-yl)ethyl)-5-(naphthalen-1-ylmethyl)-1H-pyrrol-2(5H)-one]
MIC (C. difficile): > 128 µg/mL

Cc1ncc([N+](=O)[O-])n1CC(=O)C1=C(O)C(CC(C)C)NC1=O (centres unmarked) [Compound 2123, 4-hydroxy-5-isobutyl-3-(2-(2-methyl-5-nitro-1H-imidazol-1-yl)acetyl)-1H-pyrrol-2(5H)-one]
fold less active than 1971 (MIC) [1]: 10 fold

Cc1cnc([N+](=O)[O-])n1CCNC(=O)C1=C(O)C(CC(C)C)NC1=O (centres unmarked) [Compound 2122, 4-hydroxy-5-isobutyl-N-(2-(5-methyl-2-nitro-1H-imidazol-1-yl)ethyl)-2-oxo-2,5-dihydro-1H-pyrrole-3-carboxamide]
fold less active than 1971 (MIC) [1]: 24 fold

CC(=O)C1=C(O)C(CSCc2ccccc2)N(CCn2c([N+](=O)[O-])cnc2C)C1=O (centres unmarked) [Compound 2313, 3-acetyl-5-((benzylthio)methyl)-4-hydroxy-1-(2-(2-methyl-5-nitro-1H-imidazol-1-yl)ethyl)-1H-pyrrol-2(5H)-one]
Caco-2 permeation in words (Caco-2 monolayer; Caco-2): slightly more permeable than vancomycin
permeability co-efficient (Papp A-B) (Caco-2 monolayer; Caco-2): 284.5±34.7 to 307±35.6

CC(=O)C1=C(O)C(Cc2ccc(-c3ccccc3)cc2)N(CCn2ccnc2C)C1=O (centres unmarked) [Compound 2700, 5-([1,1′-biphenyl]-4-ylmethyl)-3-acetyl-4-hydroxy-1-(2-(2-methyl-1H-imidazol-1-yl)ethyl)-1H-pyrrol-2(5H)-one]
MIC (C. difficile): > 128 µg/mL

CC(=O)C1=C(O)C(Cc2cn(C)c3ccccc23)N(CCn2c([N+](=O)[O-])cnc2C)C1=O (centres unmarked) [Compound 2490]
MIC ([4]; infecting strain ATCC 43596): 0.25 µg/mL (≈ 0.571 µM)

CC(=O)C1=C(O)C(Cc2ccccc2)N(CCn2c([N+](=O)[O-])cnc2C)C1=O (centres unmarked) [Compound 2154, 3-acetyl-5-benzyl-4-hydroxy-1-(2-(2-methyl-5-nitro-1H-imidazol-1-yl)ethyl)-1H-pyrrol-2(5H)-one]
Caco-2 permeation in words (Caco-2 monolayer; Caco-2): slightly more permeable than vancomycin
permeability co-efficient (Papp A-B) (Caco-2 monolayer; Caco-2): 284.5±34.7 to 307±35.6

CC(=O)C1=C(O)C(Cc2ccc(-c3ccccc3)cc2)N(CCn2c([N+](=O)[O-])cnc2C)C1=O (centres unmarked) [Compound 2345, 5-([1,1′-biphenyl]-4-ylmethyl)-3-acetyl-4-hydroxy-1-(2-(2-methyl-5-nitro-1H-imidazol-1-yl)ethyl)-1H-pyrrol-2(5H)-one]
MIC [4, 10]: 0.25 µg/mL (≈ 0.543 µM)
Cmax [5]: 616 ng/mL
Tmax [5]: 15 min
AUC [5]: 355 ng·h/mL
fold difference in cecal concentration of 2344 and 2345 ([6]; 2345 versus 2344): 12 fold
mean peak cecal concentration [6]: 32,649 ng/mL
half-life [7]: 79.8 min

Cc1ncc([N+](=O)[O-])n1CCO [metronidazole, reference compound]
MIC [1]: 0.25 µg/mL (≈ 1.46 µM)
MIC ([4]; Clostridioides difficile, ATCC43596): 0.125 µg/mL (≈ 0.73 µM)
Caco-2 permeation in words (Caco-2 monolayer; apical to basolateral): highly permeable
survival, maximum days post-infection ([2]; 50 mg/kg once daily, days 1 to 5, oral): ≤ 10 days
Cmax [5]: 51000 ng/mL
Tmax [5]: 60 min
AUC [5]: 135000 ng·h/mL
patients relapsing following therapy [9]: more than 25%

Cc1ncc([N+](=O)[O-])n1CCN1C(=O)C(C(=O)c2ccc(F)cc2)=C(O)[C@H]1CC(C)C [Compound 2315, (R)-3-(4-fluorobenzoyl)-4-hydroxy-5-isobutyl-1-(2-(2-methyl-5-nitro-1H-imidazol-1-yl)ethyl)-1H-pyrrol-2(5H)-one]
activity / MIC in words (FIG. 10) [8]: No difference in MIC
Caco-2 permeation in words (Caco-2 monolayer; Caco-2): slightly more permeable than vancomycin
permeability co-efficient (Papp A-B) (Caco-2 monolayer; Caco-2): 284.5±34.7 to 307±35.6
